Consider four compounds from patent US20060234990A1, “Compositions of boswellic acids derived from Boswellia serrata gum resin, for treating lymphoproliferative and autoimmune conditions” (SAMI LABS LTD., priority 2000, published 2006).

In data set [1] the test system is HL-60 cells. Nature of the data set: DNA synthesis ([3H]thymidine incorporation) in HL-60 cells. Format: cell-based. The following applies: Homo sapiens; cultured HL-60 cells incubated for 2 hours; read-out: 50% inhibitory activity on the incorporation of [3H]-thymidine into DNA. The text has this: (§1) FIGS. 1, 2, and 3 show the inhibitory effects of compounds I-IV on the DNA, RNA and protein synthesis of HL-60 cells, respectively (in FIG. 1-3, lines 1, 2, 3 and 4 refer to the data of compounds I, II, III and IV, respectively). Tables 1 and 2 show the inhibitory effect of a “total organic acids” extract of the exudate of Boswellia serrata on DNA, RNA and protein synthesis or growth in HL-60 cells. […] The initial rates of incorporation of [^3H]-thymidine, [^3H]-uridine and [^3H]-leucine into trichloroacetic acid (TCA)-insoluble material were utilized to estimate the rates of DNA, RNA, and protein synthesis, respectively, in HL-60 cells. […] the inhibitory effects of compounds I-IV and the alcoholic extract on DNA. RNA and protein synthesis of HL-60 cells were in a dose-dependent manner. […] 0.9 and 0.6 μM, respectively, the incorporation of [3H]-uridine at concentrations of 7.1, 2.3. 2.2 and 0.5 μM, respectively, and the incorporation of [3H]-leucine into protein at concentrations of 6.3, 5.4, 5.1 and 4.1 μM, respectively, in cultured HL-60 cells incubated for 2 hours.
(§2) Various concentrations of the Boswellia serrata extract, as indicated above, were added to 1 mL of HL-60 cells suspended in RPMI medium. [^3H]thymidine (50 μCi/μmol: […]), [^3H]uridine (55 μCi/μmol; 5 μL), [^3H]leucine (200 μCi/μmol: 10 μL), were added to the cell suspension and incubated at 37° C. for 120 min. Reactions were terminated by addition of 3 mL of cold PBS, and the rates of DNA. RNA, and protein synthesis were determined.
[^3H]Thymidine (3 μL; 50 μCi/μmol), vehicle or various concentrations of BSE in vehicle were added to 1 mL of HL-60 cells (5×10^5 cells/mL) in culture, and the cultures were incubated at 37° C. for 120 min. Data are expressed as the mean±SE calculated from triplicate studies. Data in parentheses are the percent inhibition of [^3H]thymidine incorporation into the DNA of HL-60 cells.
Background: Incorporation of labelled thymidine or its analogues reports DNA synthesis.

Data set [2] concerns HL-60 cells. In words: RNA synthesis ([3H]uridine incorporation) in HL-60 cells. In kind it is cell-based. As to conditions: Homo sapiens; cultured HL-60 cells incubated for 2 hours; read-out: 50% inhibitory activity on the incorporation of [3H]-uridine.
Excerpt: as §1, §2

In data set [3] the test system is HL-60 cells. Nature of the data set: Protein synthesis ([3H]leucine incorporation) in HL-60 cells. In kind it is cell-based. The following applies: Homo sapiens; cultured HL-60 cells incubated for 2 hours; read-out: 50% inhibitory activity on the incorporation of [3H]-leucine into protein.
Excerpt: as §1, §2

Data set [4] concerns HL-60 cells. In words: Cellular growth of HL-60 cells in culture. In kind it is cell-based. The following applies: Homo sapiens, HL-60, 96 h, 37° C., 4 days. How it is done: (§3) The effect of compound IV on cellular growth of HL-60 cells was tested. […] In order to test whether this growth was the result of cell cytotoxicity, the effects of this compound on cell viability were examined after 4 days incubation using the trypan blue exclusion method. The cells viability at concentrations of 0, 1, 4, 16 μM were 97.0, 96.8, 96.5, or 96.7%, respectively.
Various concentrations of BSE, as indicated above, were added to the HL-60 cell cultures. These cultures were counted daily using a hemacytometer under a microscope with 10× magnification every 24 hours. Data are expressed as the mean=SE calculated from triplicate studies. Data in parentheses are the percent inhibition of cell growth.

A short description of data set [5]: Cell viability of HL-60 cells, trypan blue exclusion method. As to conditions: human, 4 days incubation. In kind it is cell-based. How it is done:
as §3

Data set [6] deals with HL-60 cells. Nature of the data set: Reversibility of DNA synthesis inhibition after preincubation and washing. In kind it is cell-based, human. As to conditions: preincubated at 2 and 8 μM for 30 min at 37° C., washed with PBS. How it is done: In this experiment HL-60 cells were preincubated with compound IV at 2 and 8 μM for 30 min at 37° C., washed with phosphate buffer saline and [3H]-thymidine was added to the culture. At desired times, the reactions were terminated and the rates of DNA synthesis were determined.

A further data set deals with T1, human leukocyte elastase (Homo sapiens, UniProt P08246).
T1 sequence (P08246 30-267): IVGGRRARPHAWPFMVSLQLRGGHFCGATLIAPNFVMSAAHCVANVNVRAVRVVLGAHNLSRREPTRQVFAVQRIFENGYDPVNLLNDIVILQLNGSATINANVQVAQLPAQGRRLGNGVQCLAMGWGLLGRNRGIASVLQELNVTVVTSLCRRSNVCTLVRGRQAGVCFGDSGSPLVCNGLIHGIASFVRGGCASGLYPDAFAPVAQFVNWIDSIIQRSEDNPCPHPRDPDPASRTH
The following applies: in vitro; Safayhi et al (1997); cited from earlier work.

In general, inhibition refers to the relative decrease from the control value, in per cent. The viability is a per cent measure of how many cells are alive, often set against a control.

For the compound `CC1CCC2(C)CCC3(C)C(=CC(=O)C4(C)C3CCC3C(C)(C(=O)O)C(O)CCC34C)C2C1C` (stereo not drawn) [III, 11-keto-β-Boswellic Acid], the IC50 with HL-60 cells [1] amounted to 0.9 µM; with HL-60 cells [2] it was 2.2 µM; with HL-60 cells [3], 5.1 µM.

Consider `CC(=O)OC1CCC2(C)C(CCC3C4(C)CCC5(C)CCC(C)C(C)C5C4=CC(=O)C32C)C1(C)C(=O)O` (stereo not drawn) [IV, Acetyl-11-keto-β-Boswellic Acid], for which the IC50 was 0.6 µM in the data set with HL-60 cells [1], 0.5 µM in the data set on HL-60 cells [2], 4.1 µM in the data set on HL-60 cells [3] and about 15 µM on human leukocyte elastase. The compound also yielded an inhibition at 1 µM in the data set on HL-60 cells [4] (1 μM) of 54.5%. Also, in the data set with HL-60 cells [4] (4 μM), the inhibition at 4 µM turned out to be 71.8%. For the same compound, the inhibition at 16 µM in the data set on HL-60 cells [4] (16 μM) came out at 98.6%. The compound also registered a viability at 4 days, 1 µM in data set [5] (1 μM) of 96.8%. Also, the viability at 4 days, 4 µM in data set [5] (4 μM) amounted to 96.5%. The viability at 4 days, 16 µM in data set [5] (16 μM) worked out at 96.7%. Further, the “inhibitory action on DNA synthesis after washing” value with HL-60 cells [6] was “irreversible”.

On to `CC(=O)OC1CCC2(C)C(CCC3C4(C)CCC5(C)CCC(C)C(C)C5C4=CCC32C)C1(C)C(=O)O` (stereo not drawn) [II, Acetyl-β-Boswellic Acid], for which the IC50 came out at 1.4 µM in the data set with HL-60 cells [1], 2.3 µM with HL-60 cells [2] and 5.4 µM with HL-60 cells [3].

As for `CC1CCC2(C)CCC3(C)C(=CCC4(C)C3CCC3C(C)(C(=O)O)C(O)CCC34C)C2C1C` (stereo not drawn) [I, β-Boswellic Acid], the IC50 with HL-60 cells [1] stood at 3.7 µM; in the data set on HL-60 cells [2] it was 7.1 µM; with HL-60 cells [3], 6.3 µM.
